Reference: US20240425475A1, “COMPOUND BASED ON QUINAZOLINE-SUBSTITUTED GLUTARIMIDE SKELETON AND USE THEREOF” (GLUETACS THERAPEUTICS (SHANGHAI) CO., LTD., priority 2022, published 2024)

The molecules below were run against human Cereblon WT GST-tagged protein (Homo sapiens (Human), UniProt Q96SW2) (assay: CRBN-binding affinity, CEREBLON BINDING kit (HTRF)). Conditions: HTRF inhibitory activity, binding to CRBN.
Sequence of human Cereblon WT GST-tagged protein (Q96SW2 whole entry): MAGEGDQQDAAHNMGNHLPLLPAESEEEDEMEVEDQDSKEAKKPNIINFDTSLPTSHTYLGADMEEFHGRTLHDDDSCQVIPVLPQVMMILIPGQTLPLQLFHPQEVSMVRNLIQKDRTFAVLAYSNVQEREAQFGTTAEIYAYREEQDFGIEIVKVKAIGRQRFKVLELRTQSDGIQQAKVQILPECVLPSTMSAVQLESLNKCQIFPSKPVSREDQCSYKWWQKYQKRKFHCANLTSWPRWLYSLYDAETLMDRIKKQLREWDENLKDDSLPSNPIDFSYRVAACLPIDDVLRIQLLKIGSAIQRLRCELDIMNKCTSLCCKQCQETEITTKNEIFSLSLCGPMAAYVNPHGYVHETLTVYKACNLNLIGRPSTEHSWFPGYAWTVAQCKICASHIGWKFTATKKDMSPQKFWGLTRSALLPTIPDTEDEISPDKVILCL
Excerpt: Determination of CRBN-Binding Affinity of Compounds
The CEREBLON BINDING kits (specification: 10,000 tests; product number: Catalog #64BDCRBNPEH; CISBIO company) was used to determine the CRBN binding ability of the compounds to be tested through a HTRF method (homogeneous time-resolved fluorescence). The specific methods are as follows: • 1. According to the instructions of the CEREBLON BINDING kits, the compounds to be tested of the present invention and lenalidomide were serially diluted using diluent #9 (1×) solution to obtain a final concentration of 2 μM for both the tested compounds and lenalidomide solution. • 2.2.5 μL of the above 2 μM of the tested compounds and lenalidomide solution, as well as the same volume of diluent #9 (1×) solution (solvent control group, Std0) were taken and added to each well of a 96-well plate, respectively. Then, 2.5 μL of (human Cereblon WT GST-tagged protein) solution was added to each well. Finally, 5 μL of the uniformly mixed thalidomide-Red reagent and GST Eu antibody working solution were added to each of the above wells. The final concentration of the tested compounds and lenalidomide in each well is 0.5 μM. • 3. The blank control wells were sequentially added with 2.5 μL of diluent #9 (1×) solution, 2.5 μL of PROTAC binding buffer, and 5 μL of uniformly mixed thalidomide-Red reagent and GST Eu antibody working solution. • 4. After sealing and incubating the solutions in the above wells at room temperature for 3 hours, the absorbance values at emission wavelengths of 620 nm and 665 nm were detected by the HTRF method using a Spark microplate reader (V3.1 SP1).
The corresponding CRBN binding inhibition rate was calculated using the following method: […]
Note: OD 665 nmcompound is the absorbance value of each well of the compounds to be tested of the present disclosure at an emission wavelength of 665 nm.
OD 620 nmcompound is the absorbance value of each well of the compounds to be tested of the present disclosure at an emission wavelength of 620 nm.
OD 665 nmcontrol is the absorbance value of the blank control well at an emission wavelength of 665 nm.
OD 620 nmcontrol is the absorbance value of the blank control well at an emission wavelength of 620 nm.
OD 665 nmstd0 is the absorbance value of the solvent control well at an emission wavelength of 665 nm.
OD 620 nmstd0 is the absorbance value of the solvent control well at an emission wavelength of 620 nm.
For `Cc1nc2cccc(NCCOCCNC34CC5CC(CC(C5)C3)C4)c2c(=O)n1C1CCC(=O)NC1=O` (stereo not drawn) [GT-02234, 3-(5-((2-(2-(((1s,3s)-adamantan-1-yl)amino)ethoxy)ethyl)amino)-2-methyl-4-oxoquinazolin-3(4H)-yl)piperidine-2,6-dione], the IC50 was 3340 nM.
`Cc1nc2cccc(NCCCNC3C4CC5CC(C4)CC3C5)c2c(=O)n1C1CCC(=O)NC1=O` (stereo not drawn) [GT-02326, 3-(5-((3-(((1r,3r,5r,7r)-adamantan-2-yl)amino)propyl)amino)-2-methyl-4-oxoquinazolin-3(4H)-yl)piperidine-2,6-dione] was tested, and the IC50 was 700 nM.
Molecule `Cc1nc2cccc(NCCOCCNC34CC5CC(CC3C5)C4)c2c(=O)n1C1CCC(=O)NC1=O` (stereo not drawn) [GT-02389, 3-(5-((2-(2-(((3as,6as)-hexahydro-2,5-methanopentalen-3a(1H)-yl)amino)ethoxy)ethyl)amino)-2-methyl-4-oxoquinazolin-3(4H)-yl)piperidine-2,6-dione] has an IC50 of 780 nM.
`Cc1nc2cccc(NCCCCNC3C4CC5CC(C4)CC3C5)c2c(=O)n1C1CCC(=O)NC1=O` (stereo not drawn) [GT-02392, 3-(5-((4-(((1r,3r,5r,7r)-adamantan-2-yl)amino)butyl)amino)-2-methyl-4-oxoquinazolin-3(4H)-yl)piperidine-2,6-dione] gave an IC50 of 990 nM.
In the case of `Cc1nc2cccc(NCCOCCOCCNC34CC5CC(CC3C5)C4)c2c(=O)n1C1CCC(=O)NC1=O` (stereo not drawn) [GT-02497, 3-(5-((2-(2-(2-(((3as,6as)-hexahydro-2,5-methanopentalen-3a(1H)-yl)amino)ethoxy)ethoxy)ethyl)amino)-2-methyl-4-oxoquinazolin-3(4H)-yl)piperidine-2,6-dione], the IC50 is reported as 660 nM.
In the case of `Cc1nc2cccc(NCCCCCCCN3CCCN(C)CC3)c2c(=O)n1C1CCC(=O)NC1=O` (stereo not drawn) [GT-02502, 3-(2-methyl-5-((7-(4-methyl-1,4-diazepan-1-yl)heptyl)amino)-4-oxoquinazolin-3(4H)-yl)piperidine-2,6-dione], the IC50 is reported as 1800 nM.
In the case of `Cc1nc2cccc(NC34CC5CC(CC(C5)C3)C4)c2c(=O)n1C1CCC(=O)NC1=O` (stereo not drawn) [GT-02601, 3-(5-(((1s,3s)-adamantan-1-yl)amino)-2-methyl-4-oxoquinazolin-3(4H)-yl)piperidine-2,6-dione], the IC50 is reported as 2820 nM.
`Cc1nc2cccc(NCCCCCCCN3CC4CC(C3)O4)c2c(=O)n1C1CCC(=O)NC1=O` (stereo not drawn) [GT-02621, 3-(5-((7-(6-oxa-3-azabicyclo[3.1.1]heptan-3-yl)heptyl)amino)-2-methyl-4-oxoquinazolin-3(4H)-yl)piperidine-2,6-dione] was tested, and the IC50 was 1040 nM.
`Cc1nc2cccc(NCCCCCCCN3CCC(N4CCOCC4)CC3)c2c(=O)n1C1CCC(=O)NC1=O` (stereo not drawn) [GT-02622, 3-(2-methyl-5-((7-(4-morpholinopiperidin-1-yl)heptyl)amino)-4-oxoquinazolin-3(4H)-yl)piperidine-2,6-dione] gave an IC50 of 2480 nM.
Work on `Cc1nc2cccc(NCCCCCCCN3CCN(C4COC4)CC3)c2c(=O)n1C1CCC(=O)NC1=O` (stereo not drawn) [GT-02623, 3-(2-methyl-5-((7-(4-(oxetan-3-yl)piperazin-1-yl)heptyl)amino)-4-oxoquinazolin-3(4H)-yl)piperidine-2,6-dione] yielded an IC50 of 2520 nM.
Work on `Cc1nc2cccc(C#CCCCCCCN3CCN(C)CC3)c2c(=O)n1C1CCC(=O)NC1=O` (stereo not drawn) [GT-02645, 3-(2-methyl-5-(8-(4-methylpiperazin-1-yl)oct-1-yn-1-yl)-4-oxoquinazolin-3(4H)-yl)piperidine-2,6-dione] yielded an IC50 of 2800 nM.
Work on `Cc1nc2cccc(CCCCCNC34CC5CC(CC(C5)C3)C4)c2c(=O)n1C1CCC(=O)NC1=O` (stereo not drawn) [GT-02759, 3-(5-(5-(((3s,5s,7s)-adamantan-1-yl)amino)pentyl)-2-methyl-4-oxoquinazolin-3(4H)-yl)piperidine-2,6-dione] yielded an IC50 of 50 nM.
With `Cc1nc2cccc(CCCCCCCCN3CCC(N4CCN(C)CC4)CC3)c2c(=O)n1C1CCC(=O)NC1=O` (stereo not drawn) [GT-02799, 3-(2-methyl-5-(8-(4-(4-methylpiperazin-1-yl)piperidin-1-yl)octyl)-4-oxoquinazolin-3(4H)-yl)piperidine-2,6-dione] the IC50 was 2470 nM.
Work on `Cc1nc2cccc(CCCCCCCCN3CC4CC(C3)O4)c2c(=O)n1C1CCC(=O)NC1=O` (stereo not drawn) [GT-02800, 3-(5-(8-(6-oxa-3-azabicyclo[3.1.1]heptan-3-yl)octyl)-2-methyl-4-oxoquinazolin-3(4H)-yl)piperidine-2,6-dione] yielded an IC50 of 3400 nM.
`Cc1nc2cccc(CN3CCN(CC45CC6CC(CC(C6)C4)C5)CC3)c2c(=O)n1C1CCC(=O)NC1=O` (stereo not drawn) [GT-03227, 3-(5-((4-(((3r,5r,7r)-adamantan-1-yl)methyl)piperazin-1-yl)methyl)-2-methyl-4-oxoquinazolin-3(4H)-yl)piperidine-2,6-dione] showed an IC50 of 2240 nM.
In the case of `Cc1nc2cccc(CN3CCNCC3)c2c(=O)n1C1CCC(=O)NC1=O` (stereo not drawn) [GT-03228, 3-(2-methyl-4-oxo-5-(piperazin-1-ylmethyl)quinazolin-3(4H)-yl)piperidine-2,6-dione], the IC50 is reported as 1840 nM.
For `Cc1nc2cccc(CN3CCN(Cc4ccc(C56CC7CC(CC(C7)C5)C6)cc4)CC3)c2c(=O)n1C1CCC(=O)NC1=O` (stereo not drawn) [GT-03230, 3-(5-((4-(4-((3r,5r,7r)-adamantan-1-yl)benzyl)piperazin-1-yl)methyl)-2-methyl-4-oxoquinazolin-3(4H)-yl)piperidine-2,6-dione], the IC50 was 2750 nM.
`Cc1nc2cccc(C#CCN3CCN(Cc4ccc(C56CC7CC(CC(C7)C5)C6)cc4)CC3)c2c(=O)n1C1CCC(=O)NC1=O` (stereo not drawn) [GT-03233, 3-(5-(3-(4-(4-((3r,5r,7r)-adamantan-1-yl)benzyl)piperazin-1-yl)prop-1-yn-1-yl)-2-methyl-4-oxoquinazolin-3(4H)-yl)piperidine-2,6-dione] showed an IC50 of 2240 nM.
`Cc1nc2cccc(SCCN3CCN(CC45CC6CC(CC(C6)C4)C5)CC3)c2c(=O)n1C1CCC(=O)NC1=O` (stereo not drawn) [GT-03259, 3-(5-((2-(4-(((3r,5r,7r)-adamantan-1-yl)methyl)piperazin-1-yl)ethyl)thio)-2-methyl-4-oxoquinazolin-3(4H)-yl)piperidine-2,6-dione] gave an IC50 of 2150 nM.
Molecule `Cc1nc2cccc(CN3CCN(CCC45CC6CC(CC(C6)C4)C5)CC3)c2c(=O)n1C1CCC(=O)NC1=O` (stereo not drawn) [GT-03261, 3-(5-((4-(2-((3r,5r,7r)-adamantan-1-yl)ethyl)piperazin-1-yl)methyl)-2-methyl-4-oxoquinazolin-3(4H)-yl)piperidine-2,6-dione] has an IC50 of 1000 nM.
For `Cc1nc2cccc(C#CCN3CCN(CCC45CC6CC(CC(C6)C4)C5)CC3)c2c(=O)n1C1CCC(=O)NC1=O` (stereo not drawn) [GT-03262, 3-(5-(3-(4-(2-((1s,3s)-adamantan-1-yl)ethyl)piperazin-1-yl)prop-1-yn-1-yl)-2-methyl-4-oxoquinazolin-3(4H)-yl)piperidine-2,6-dione], the IC50 was 1000 nM.
Molecule `Cc1nc2cccc(SCCN3CCN(Cc4ccc(C56CC7CC(CC(C7)C5)C6)cc4)CC3)c2c(=O)n1C1CCC(=O)NC1=O` (stereo not drawn) [GT-03315, 3-(5-((2-(4-(4-((1s,3s)-adamantan-1-yl)benzyl)piperazin-1-yl)ethyl)thio)-2-methyl-4-oxoquinazolin-3(4H)-yl)piperidine-2,6-dione] has an IC50 of 1980 nM.
With `Cc1nc2cccc(CN3CCN(C(=O)C45CC6CC(CC(C6)C4)C5)CC3)c2c(=O)n1C1CCC(=O)NC1=O` (stereo not drawn) [GT-03317, 3-(5-((4-((1s,3s)-adamantane-1-carbonyl)piperazin-1-yl)methyl)-2-methyl-4-oxoquinazolin-3(4H)-yl)piperidine-2,6-dione] the IC50 was 3580 nM.
In the case of `Cc1nc2cccc(N3C4CC3CN(CCC35CC6CC(CC(C6)C3)C5)C4)c2c(=O)n1C1CCC(=O)NC1=O` (stereo not drawn) [GT-04231, 3-(5-(3-(2-((3r,5r,7r)-adamantan-1-yl)ethyl)-3,6-diazabicyclo[3.1.1]heptan-6-yl)-2-methyl-4-oxoquinazolin-3(4H)-yl)piperidine-2,6-dione], the IC50 is reported as 3240 nM.
